Measurements: PubChem BioAssay (NCI)
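1) Cells in 96-well plates. 2) Compound, 48 h, 5 concentrations. 3) Linear interpolation between surrounding doses. 4) Unreached endpoint = highest concentration. GI50 = concentration required for 50% inhibition of growth. TGI denotes the concentration required for complete inhibition of growth.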

How the values were obtained:
Assay in all cases: NCI tumour cell line growth inhibition, 48 h
SK-MEL-5 melanoma = test system: SK-MEL-5 melanoma
K-562 leukemia = test system: K-562 leukemia
HOP-62 NSCLC = test system: HOP-62 NSCLC
M14 melanoma = test system: M14 melanoma
SK-MEL-28 melanoma = test system: SK-MEL-28 melanoma
TK-10 renal = test system: TK-10 renal
MALME-3M melanoma = test system: MALME-3M melanoma
ACHN renal = test system: ACHN renal
T-47D breast = test system: T-47D breast
SR leukemia = test system: SR leukemia

SMILES	TGI (SK-MEL-5 melanoma) [µM]	TGI (K-562 leukemia) [µM]	TGI (HOP-62 NSCLC) [µM]	TGI (M14 melanoma) [µM]	TGI (SK-MEL-28 melanoma) [µM]	TGI (TK-10 renal) [µM]	TGI (MALME-3M melanoma) [µM]	TGI (ACHN renal) [µM]	GI50 (SK-MEL-5 melanoma) [µM]	GI50 (T-47D breast) [µM]	TGI (T-47D breast) [µM]	GI50 (K-562 leukemia) [µM]	GI50 (HOP-62 NSCLC) [µM]	GI50 (M14 melanoma) [µM]	GI50 (SK-MEL-28 melanoma) [µM]	GI50 (TK-10 renal) [µM]	GI50 (MALME-3M melanoma) [µM]	GI50 (ACHN renal) [µM]	TGI (SR leukemia) [µM]	GI50 (SR leukemia) [µM]
CCOC(=O)[C@@]12C(C)=CC(=O)O[C@]1(C)C1C(=O)NC(=O)C12 (stereo not given in full)	> 100	> 100	> 100	> 100	> 100	> 100	> 100	> 100	–	–	–	–	–	–	–	–	–	–	–	–
CC12CCC(=O)C(O1)C1C(=O)c3ccc4c(ccc5ccccc54)c3C(=O)C12 (stereo not given)	3.3	7.3	50.3	30.6	> 100	7.89	4.4	8.21	1.63	2.26	> 28.5	1.72	26.5	12.2	29.1	3.47	0.945	3.13	–	–
CN1CCN=C1c1nnn(-c2ccc([N+](=O)[O-])cc2)c1-c1ccccc1	> 100	> 100	> 100	> 100	> 100	> 100	> 100	> 100	–	–	–	–	–	–	–	–	–	–	> 100	–
COc1cc(OC)c2c(=O)cc(-c3ccccc3OCc3ccccc3)oc2c1OC	4.33	> 100	44.4	23.1	46.5	34.9	–	> 100	1.84	18.7	> 100	> 100	10.7	7.22	12.7	6.56	–	6.19	–	–
O=C1CS/C(=N/S(=O)(=O)c2ccc(N3N=C4c5ccccc5CC4C3c3cccs3)cc2)N1C(=O)c1ccccc1 (stereo not given)	69.6	–	63	> 100	> 100	–	–	> 100	22.7	> 100	> 100	–	32.9	44.7	> 100	–	–	39	–	–
COc1cc(Cc2c(C)cc(OC)c3[nH]c4ccccc4c23)cc2c1[nH]c1ccccc12	7.93	> 25	11	11.8	> 25	> 25	12.4	> 25	3.94	–	–	7.31	5.49	5.12	8.61	12	4.44	4.67	> 25	7.77
CS(=O)(=O)c1ccc(COP(N)(=O)N(CCCl)CCCl)cc1 (stereo not given)	> 100	> 100	> 100	> 100	> 100	> 100	> 100	> 100	–	–	–	–	–	–	–	–	–	–	> 100	–
CCCCNS(=O)(=O)c1ccc(-c2ccc3c(c2)-c2ccc(S(=O)(=O)NCCCC)cc2S3(=O)=O)cc1	28.6	> 100	37.3	53.7	29.7	83.2	49.2	> 100	–	–	–	–	–	–	–	–	–	–	> 100	–
CCCCCCC(=O)C/C(CCC(=O)N(Cc1ccccc1)Cc1ccccc1)=N\NC(N)=O	> 100	> 100	> 100	> 100	> 100	> 100	> 100	> 100	–	–	–	–	–	–	–	–	–	–	> 100	–
COc1ccc2c(c1O)[C@@]13CCCC=C1[C@@H](C2)[N+](C)(C)CC3	> 100	> 100	> 100	> 100	> 100	> 100	> 100	> 100	–	–	> 100	–	–	–	–	–	–	–	–	–
COC(=O)/C(C#N)=C1\CCC(OC)N1C (stereo not given)	> 100	> 100	> 100	> 100	> 100	> 100	> 100	> 100	–	–	–	–	–	–	–	–	–	–	–	–
CCc1ccc2oc(=O)ccc2c1	> 100	> 100	> 100	> 100	> 100	–	> 100	> 100	–	–	–	–	–	–	–	–	–	–	> 100	–
CCC(C)(O)c1cn(-c2ccc(Cl)cc2)nn1 (stereo not given)	> 100	> 100	> 100	> 100	> 100	> 100	> 100	> 100	–	–	–	–	–	–	–	–	–	–	> 100	–
O=C(O)c1c2c(cc3c(=O)c4ccccc4[nH]c13)CCCC2	–	–	> 100	–	> 100	> 100	> 100	> 100	–	–	–	–	–	–	–	–	–	–	> 100	–
COc1cc2c(cc1OC)C(C(CBr)CBr)N(C1CCCC1)CC2 (stereo not given)	> 100	> 100	> 100	> 100	> 100	> 100	> 100	> 100	–	–	–	–	–	–	–	–	–	–	> 100	–
O=C1OC(=O)C23CSCC12C1C=CC3O1 (stereo not given)	> 100	> 100	> 100	> 100	> 100	> 100	> 100	> 100	–	–	–	–	–	–	–	–	–	–	–	–
Cc1ccccc1-n1c(=S)[nH]c2c(sc(=O)n2-c2ccccc2C)c1=O	> 100	> 100	> 100	> 100	> 100	–	> 100	> 100	–	–	–	–	–	–	–	–	–	–	> 100	–
CN1CCC(c2c(O)cc(O)c3c(=O)cc(-c4ccccc4Cl)oc23)C(O)C1 (stereo not given)	0.107	> 100	–	0.236	0.6	> 100	0.598	–	–	–	–	0.297	–	–	–	–	–	–	–	–
CC1CCCC(C#N)(NOC2=NCCN2)C1 (stereo not given)	34.2	61.5	–	> 100	> 100	46.2	–	46	14.9	–	–	17.4	–	84.1	> 100	12.9	–	18.9	> 100	7.87
CC(C)(C)c1ccc(C2CC(=O)C3=C(C2)Nc2ccccc2N(C(=O)c2ccccc2Cl)C3c2ccc(F)cc2)cc1 (stereo not given)	> 100	–	> 100	> 100	> 100	–	> 100	> 100	> 100	5.57	> 100	–	> 100	> 100	> 100	–	> 100	> 100	–	–
COC(=O)C(=O)C(C(=O)C(=O)Nc1ccccc1[N+](=O)[O-])c1nc2ccc([N+](=O)[O-])cc2[nH]c1=O (stereo not given)	> 100	> 100	–	> 100	> 100	–	> 100	> 100	–	–	–	–	–	–	–	–	–	–	> 100	–
